For two compounds, IC50 results are on record in patent US20170037030A1, “AUTOTAXIN INHIBITORS” (NOVARTIS AG, priority 2014, published 2017).

The target in this experiment is T1, Recombinant human ATX (Homo sapiens, UniProt Q13822).
T1 construct: made in house; host or cells: human embryonic kidney (HEK) cells
Kind of experiment: ATX inhibition assay (released choline, Amplex Red fluorescence). The format is biochemical. The following applies: ATX 10 nM, LPC 18:1 10 μM, pre-incubated with ATX at 37° C. for 20 minutes; mean of n≧2. As to the method: Reagents—LPC (oleoyl (18:1)) was purchased from Avert Polar Lipids (Alabaster, Ala.) and solubilized in methanol to 20 mM. Amplex Red was obtained from Invitrogen Life Technologies (Paisley, UK) and dissolved in DMSO to 10 mM. Choline oxidase and horseradish peroxidase (HRP) were obtained from Sigma Aldrich (Dorset, UK) and dissolved in HBSS to 20 U/ml and 200 U/ml respectively. All reagents were stored at −20° C. in single use aliquots. All experimental measurements were performed in assay buffer made up immediately prior to use (HBSS, 0.01% BSA essentially fatty acid free). […]
Method—All experimental measurements were performed in black 384 well polystyrene (low volume, round bottom, Corning (3676)) plates. PerkinElmer EnVision (Fluorescence Intensity/Absorbance Monochromator) or Tecan Infinite 200 PRO series plate reader was used to detect change in fluorescent intensity.
Assessing ATX inhibition—ATX activity was determined by measurement of released choline in reactions containing ATX (10 nM), choline oxidase (0.1 U/ml), HRP (100 U/ml), amplex red (50 μM) and LPC 18:1 (10 μM). […] The liberated choline was measured from changes in fluorescence intensity (Aex 530 nm, Aem 590 nm) of the product resurofin at 37° C. every 2 minutes over a 40-minute period. ATX activity was measured as a slope of the linear portion of the progress curve, typically between 14 to 24 minutes. […]

In general, IC50 refers to the point on the concentration scale where inhibition reaches its midpoint. In the case of `O=C(CCC(=O)c1c[nH]nn1)NC1CCN(C(=O)OCc2cc(Cl)cc(Cl)c2)CC1` [Example 1, 3,5-dichlorobenzyl 4-(4-oxo-4-(1H-1,2,3-triazol-4-yl)butanamido)piperidine-1-carboxylate], the IC50 was found to be 70 nM.

Turning to `O=C(CCC(O)c1c[nH]nn1)NC1CCN(C(=O)OCc2cc(Cl)cc(Cl)c2)CC1` (centres unmarked) [Example 2, 3,5-dichlorobenzyl 4-(4-hydroxy-4-(1H-1,2,3-triazol-4-yl)butanamido)piperidine-1-carboxylate], the IC50 worked out at 10 nM.
